Read-outs that look alike come from different tables or passages of the source. Marks after values point to notes of the source that are not given here.
Columns and labels:
mice brain AChE = conditions: training set, read-out: Experimental IC50; cited from earlier work
[1] = cited from earlier work
[2] = target: T1, AChE (mice brain homogenate) (Mus musculus, UniProt P21836); assay: In vitro AChE inhibition assay (Ellman's method); assay type: biochemical; conditions: for Selectivity for AChE (IC50 for BChE divided by IC50 for AChE): mice serum BChE, (−)-meptazinol from values of ref 17
T1 construct: a solution of AChE (1:9 w/v homogenate in 0.1 M phosphate buffer (PB), pH 7.4); from tissue; host or cells: mouse brain homogenate
T1 sequence (P21836 32-614): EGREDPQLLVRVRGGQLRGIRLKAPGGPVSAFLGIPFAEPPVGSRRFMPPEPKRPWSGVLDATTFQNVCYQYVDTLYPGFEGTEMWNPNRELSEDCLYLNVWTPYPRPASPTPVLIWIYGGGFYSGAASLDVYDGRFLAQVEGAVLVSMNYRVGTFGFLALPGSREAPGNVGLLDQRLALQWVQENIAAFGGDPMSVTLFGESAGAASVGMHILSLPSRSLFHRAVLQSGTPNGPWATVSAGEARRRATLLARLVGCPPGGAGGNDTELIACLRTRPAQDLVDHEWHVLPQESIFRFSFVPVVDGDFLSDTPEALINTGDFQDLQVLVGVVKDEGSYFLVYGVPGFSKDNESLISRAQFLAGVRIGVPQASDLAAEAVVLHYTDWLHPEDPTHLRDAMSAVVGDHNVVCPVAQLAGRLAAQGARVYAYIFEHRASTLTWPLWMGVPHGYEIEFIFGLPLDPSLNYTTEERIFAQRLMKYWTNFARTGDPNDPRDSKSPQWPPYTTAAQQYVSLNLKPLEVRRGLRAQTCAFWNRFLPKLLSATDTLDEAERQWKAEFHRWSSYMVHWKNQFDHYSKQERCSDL
Protocol: (§1) Inhibitory activities of the compounds toward AChE and BChE were evaluated by Ellman’s method, employing mice brain homogenate as source of AChE and mice serum as source of BChE. […] After incubation for 20 min at 37 °C, Ellman’s reagent (300 µL, 5,5′-dithiobis(2-nitrobenzoic acid) (DTNB), 0.5 mM in 0.1 M PB, pH 7.4) and acetylthiocholine iodide (ATCh) (300 µL of 0.5 mM water solution) were added successively, and percent inhibition was determined by absorbance changes at 412 nm detected by UV spectrophotometry compared with control. BChE inhibition assay was similarly carried out using butyrylthiocholine iodide (BTCh) (0.5 mM) as the substrate and BChE (1:19 v/v serum in 0.1 M PB, pH 7.4) as the enzyme source.

BChE (mice serum) = target: T2, BChE (mice serum) (Mus musculus, UniProt Q03311); assay: In vitro BChE inhibition assay (Ellman's method); assay type: biochemical; conditions: read-out: IC50 ± SEM BChE
T2 construct: BChE (1:19 v/v serum in 0.1 M PB, pH 7.4) as the enzyme source; from tissue; host or cells: mouse serum
T2 sequence (Q03311 30-603): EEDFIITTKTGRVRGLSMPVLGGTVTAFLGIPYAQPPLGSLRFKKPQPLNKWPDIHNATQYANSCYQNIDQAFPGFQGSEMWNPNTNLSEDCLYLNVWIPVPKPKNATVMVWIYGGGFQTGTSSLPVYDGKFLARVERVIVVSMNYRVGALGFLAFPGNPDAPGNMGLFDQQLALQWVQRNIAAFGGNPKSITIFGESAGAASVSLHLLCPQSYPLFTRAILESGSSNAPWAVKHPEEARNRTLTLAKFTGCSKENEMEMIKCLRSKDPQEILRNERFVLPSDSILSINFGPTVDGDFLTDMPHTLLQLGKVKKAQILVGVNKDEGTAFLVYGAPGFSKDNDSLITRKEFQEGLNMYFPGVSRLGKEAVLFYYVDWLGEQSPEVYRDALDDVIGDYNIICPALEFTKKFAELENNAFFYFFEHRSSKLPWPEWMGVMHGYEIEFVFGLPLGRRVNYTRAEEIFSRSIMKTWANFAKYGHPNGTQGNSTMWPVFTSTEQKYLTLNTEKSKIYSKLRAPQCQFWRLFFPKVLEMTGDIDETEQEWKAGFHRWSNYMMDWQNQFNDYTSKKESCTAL
Protocol: as §1

rHuAChE = rHuAChE (Homo sapiens, UniProt P22303); assay: Determination of the enzyme kinetic parameters Km and Vmax; assay type: biochemical; conditions: for Type of AChE inhibition: Lineweaver–Burk plots, decreased Vmax, unvaried Km
rHuAChE, sequence (P22303 32-614): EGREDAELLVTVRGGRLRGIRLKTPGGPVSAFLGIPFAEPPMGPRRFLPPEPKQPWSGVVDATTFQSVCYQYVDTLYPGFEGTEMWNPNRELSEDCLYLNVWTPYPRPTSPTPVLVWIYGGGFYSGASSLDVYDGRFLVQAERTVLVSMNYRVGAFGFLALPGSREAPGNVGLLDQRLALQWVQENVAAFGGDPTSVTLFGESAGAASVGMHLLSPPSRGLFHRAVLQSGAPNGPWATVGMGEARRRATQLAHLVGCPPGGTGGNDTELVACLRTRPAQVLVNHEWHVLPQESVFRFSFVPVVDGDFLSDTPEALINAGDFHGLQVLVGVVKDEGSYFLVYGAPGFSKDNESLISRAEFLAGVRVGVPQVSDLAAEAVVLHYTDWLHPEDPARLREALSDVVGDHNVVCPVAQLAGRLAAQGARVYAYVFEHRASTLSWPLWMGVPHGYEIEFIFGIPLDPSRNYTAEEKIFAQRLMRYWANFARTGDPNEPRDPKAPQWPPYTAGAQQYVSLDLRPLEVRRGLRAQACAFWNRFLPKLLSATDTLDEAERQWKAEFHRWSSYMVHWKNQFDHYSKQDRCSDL
Protocol: 10 µL inhibitors of different concentrations and 50 µL rHuAChE enzyme solution of 0.5 U/mL were mixed and incubated for 20 min, then 75 µL of DTNB solution and 100 µL of ATCh solution (concentration ranging from 0.057 mM to 0.2 mM) were added to the mixture. Enzyme activity was determined right after ATCh was added by modified Ellman’s spectrophotometrical method. The Km and Vmax values for AChE inhibition were calculated by regression analysis of Lineweaver–Burk plots (1/velocity versus 1/[substrate]).

[3] = target: T3, rHuAChE immobilized on EDA CIM disk (Homo sapiens, UniProt P22303); assay: Carbamoylation and decarbamoylation rate constants on AChE immobilized disk; assay type: biochemical; conditions: for Kd: inhibitor 50 and 100 nM; for Carbamoylation half-time: inhibitor 50 nM
T3 sequence (P22303 32-614): as above
Protocol: The EDA CIM disk was first connected to a syringe pump and equilibrated with 10 column volumes (CV) of triple-distilled water and 10 CVs of 0.5 M Na-PB (pH 8.0). The flow rate was set at 0.5 mL/min. Then, the disk was activated by a 1% glutaraldehyde solution in PB (0.1 M, pH 7.4) (in the dark, 12 h, 4 °C). The activated disk was washed with 10 CVs of PB. 2 mL of rHuAChE in PB (10 U/mL) was then added into the column and left to react overnight (4 °C). The Schiff bases were reduced by 5 mL of 0.1 M sodium triacetoxyborohydride (STAB) in PB (2 h at room temperature) and 5 mL of 0.2 M monoethanolamine in PB (3 h at room temperature)[39]. The column was connected to the liquid chromatography system and equilibrated with a mobile phase consisting of 0.5 M NaCl and 10^−4 M DTNB in PB (buffer A) for 10 min. Reference enzyme activity was assessed by injecting 20 µL of saturating substrate (ATCh, 50 mM). The peak area was calculated and noted as A0. Then, the mobile phase was switched to the one containing selected concentrations of inhibitor (carbamoylation phase). Aliquots of 20 µL of saturating substrate were injected every 10–20 min and the time-dependent decreasing of peak area (Ai) was monitored down to a plateau. Once a constant plateau was reached, mobile phase was switched to buffer A again (decarbamoylation phase). Aliquots of substrate were kept injecting into the system to monitor the recovery of AChE activity over time. […] The experiment was carried out for two different concentrations of 42 and 43 (50 and 100 nM). The process of AChE carbamoylation and decarbamoylation is generally described as Scheme 1[40–42].
Calculation of ki and k3 was performed by applying Perola’s mathematical equation[43]. The affinity of the inhibitors toward the enzyme (KD) was calculated following Equation (1). (1) […]

[4] = system: APP in SH-SY5Y-APP695 cells; assay: Quantification of APP by high content screening; assay type: cell-based, human; conditions: 16 h; for Reduction of intracellular APP level: 50 µM
Protocol: (§2) Human neuroblastoma SH-SY5Y cells transfected with wild-type APP695 gene (SH-SY5Y-APP695)[44] of 5 × 10^4/well (SH-SY5Y-APP695 kindly provided by Prof. Shengdi Chen, Ruijin Hospital, Shanghai Jiao Tong University School of Medicine) were plated in 200 µL culture medium (DMEM/F12, 10% Fetal Bovine Serum, 300 µg/mL G418, 100 U/mL penicillin + 100 µg/mL streptomycin) and incubated for 48 h at 37 °C in 5% CO2. Compounds 42 and 43 dissolved in culture medium were applied to the cells and incubated at 37 °C in 5% CO2 for 16 h. The cells were fixed and permeabilized. Mouse anti-APP monoclonal antibody N-terminus (MAB348, CHEMICON) and Goat anti-Mouse IgG conjugated to Alexa Fluor 555 were used as primary antibody and secondary antibody to detect APP while Hoechst Dye was used to stain nucleus simultaneously. KineticScan HCS System was employed to automatically find, focus, image, and analyze the cells on double-fluorescence channel guided by Target Activation Bioapplication. Fluorescence Unit of APP versus that of nucleus was used to evaluate the expression of APP, in order to balance the background.

[5] = system: Aβ40/Aβ42 in SH-SY5Y-APP695 cells; assay: Quantification of Aβ40/Aβ42 by ELISA in cell culture medium; assay type: cell-based, human; conditions: for Reduction of Aβ42 level / Level of Aβ40: 50 µM; for Level of Aβ40: data not shown
Protocol: as §2
The cell culture medium was collected and added with phenylmethylsulfonyl fluoride (PMSF) to the final concentration of 0.1%. The concentration of Aβ40/Aβ42 in the medium was measured by Human/Rat βAmyloid (40/42) ELISA Kit Wako and calculated according to the standard line.

in vivo = conditions: both, Kunming, mouse, in vivo
Protocol: (§3) Acute toxicity was evaluated in mice of both sexes (20–25 g Kunming mice from experimental animal center of Shanghai Jiao Tong University School of Medicine). All animals were housed in plastic cages with food and water ad libitum and maintained on a 12/12 h light/dark cycle at 22 ± 1 °C. […] Compounds 42 and 43 were dissolved in a 1:10 propylene glycol-normal saline mixture at 0.1 mol/L and then diluted to the final stepwise concentrations with normal saline. Each concentration of the compound was orally or intraperitoneally administered to a group of 10 animals. After two weeks of observation, the lethal rate for each group was measured. A 95% confidence interval for 42 or 43 after oral or intraperitoneal administration was calculated by Bliss method.

Kunming mice = assay: in vivo; conditions: mice; as doses escalate
Protocol: as §3

[6] = target: T3, rHuAChE immobilized on EDA CIM disk; conditions: cited from earlier work
[7] = target: T1, AChE (mice brain homogenate); conditions: cited from earlier work
[8] = system: AChE from human erythrocytes; conditions: human erythrocyte AChE; read-out: IC50 ± SEM AChE; cited from earlier work
human serum BChE = conditions: read-out: IC50 ± SEM BChE; cited from earlier work
[9] = system: APP in SH-SY5Y-APP695 cells; conditions: 50 µM; cited from earlier work
[10] = system: Aβ40/Aβ42 in SH-SY5Y-APP695 cells; conditions: 50 µM; cited from earlier work
[11] = dissociation (decarbamoylation) constant, Mean ± SD, n = 6
[12] = inhibit (carbamoylation) constant, Mean ± SD, n = 6
[13] = reference compound to verify the disk

| Structure (SMILES) | LD50 ([1]; p.o.) | IC50 [2] | Fold increase in inhibition of mice brain AChE compared with (−)-meptazinol ([2]; mice brain AChE) | Selectivity for AChE (IC50 for BChE divided by IC50 for AChE) ([2]; mice brain AChE) | IC50 (BChE (mice serum)) | Type of AChE inhibition (rHuAChE) | Kd ([3]; Mean ± SD, n = 6) | k3 [3, 11] | ki [3, 12] | Carbamoylation half-time [3] | Reduction of intracellular APP level [4] | Reduction of Aβ42 level ([5]; 16 h) | Level of Aβ40 [5] | LD50 (in vivo; ip) | LD50 (in vivo; po) | Peripheral cholinergic side effects observed (Kunming mice) | other results |
| --- | --- | --- | --- | --- | --- | --- | --- | --- | --- | --- | --- | --- | --- | --- | --- | --- | --- |
| CC[C@@]1(c2cccc(OC(=O)N(C)C)c2)CCCCN(C)C1 [Compound 42, (S)-3-(3-ethyl-1-methylazepan-3-yl)phenyl dimethylcarbamate] | – | 0.00693 ± 0.00245 µM | 5900 | 0.46 | 0.00317 ± 0.00134 µM | uncompetitive inhibition | 0.0302 µM | (1.35 ± 0.31) × 10^−2 min^−1 | (4.47 ± 1.21) × 10^5 M^−1min^−1 | 23.5 min | 23.5% | 34.0% | unchanged | 1.4 mg/kg | 12 mg/kg | salivation, twitch, and incontinence | AChE inhibitory potency relative to rivastigmine (times more potent) ([2]; mice brain AChE): about 790; Decrease of Vmax (rHuAChE; inhibitor 100 nM): 18%; Vmax-app (rHuAChE; inhibitor 100 nM): 28.73 µM/min; Decrease of Vmax (rHuAChE; inhibitor 250 nM): 29%; Vmax-app (rHuAChE; inhibitor 250 nM): 24.70 µM/min |
| CNC(=O)Oc1ccc2c(c1)[C@]1(C)CCN(C)[C@@H]1N2C [Compound 1, (3aS)-(−)-physostigmine] | 4.5 (p.o.)^h mg/kg | – | – | – | – | – | – | – | – | – | – | – | – | – | – | – | k3 [3, 13]: (1.94 ± 0.36) × 10^−2 min^−1; ki [3, 13]: (4.78 ± 1.13) × 10^5 M^−1 min^−1; Carbamoylation half-time [6]: 3.9 min |
| CC[C@@]1(c2cccc(O)c2)CCCCN(C)C1 [(−)-Meptazinol] | – | – | – | 0.37 | – | – | – | – | – | – | – | – | – | – | – | – | IC50 [7]: 41 µM |
| CC[C@@]1(c2cccc(OC(=O)Nc3ccccc3)c2)CCCCN(C)C1 [Compound 43, (S)-3-(3-ethyl-1-methylazepan-3-yl)phenyl phenylcarbamate] | – | 0.0316 ± 0.0035 µM | 1300 | 2.1 | 0.0671 ± 0.0237 µM | uncompetitive inhibition | 0.108 µM | (2.18 ± 0.12) × 10^−2 min^−1 | (2.12 ± 0.46) × 10^5 M^−1min^−1 | 20.3 min | 26.9% | 51.9% | unchanged | 45 mg/kg | 73 mg/kg | salivation, twitch, and incontinence | Times less potent than phenserine in AChE inhibition ([2]; against phenserine value of ref 22): 1.3; Decrease of Vmax (rHuAChE; inhibitor 25 nM): 10%; Vmax-app (rHuAChE; inhibitor 25 nM): 17.84 µM/min; Decrease of Vmax (rHuAChE; inhibitor 50 nM): 25%; Vmax-app (rHuAChE; inhibitor 50 nM): 14.94 µM/min; Decrease of APP level ([4]; 5 µM): 20.0%; Decrease of Aβ42 level ([5]; 5 µM, 16 h): 30.5% |
| CN1CC[C@@]2(C)c3cc(OC(=O)Nc4ccccc4)ccc3N(C)[C@@H]12 [Compound 5, Phenserine] | – | – | – | – | – | – | – | – | – | – | – | – | – | – | – | – | IC50 [8]: 0.024 ± 0.006 µM; IC50 (human serum BChE): 1.3 ± 0.085 µM; Decrease of APP level [9]: 40%; Decrease of total Aβ [10]: 31%; LD50 ([1]; i.p.): 25 (i.p.)^i mg/kg |

Source: PMC6009976, “Pharmacophore-based design and discovery of (−)-meptazinol carbamates as dual modulators of cholinesterase and amyloidogenesis” (Journal of Enzyme Inhibition and Medicinal Chemistry, 2017)
